The source of these data is patent US20250276998A1, “NOVEL DAROBACTIN DERIVATIVES” (Helmholtz-Zentrum Fur Infektionsforschung GmbH, priority 2021, published 2025).

Structures are written as SMILES. ≈ marks a conversion by molar mass, not a printed value. Some results are limits rather than exact numbers.

For test [1], the system named is Acinetobacter baumannii DSM-30008. The test can be described thus: MIC assay of crude extracts, relative activity vs darobactin A. Particulars: crude extract, relative to darobactin A, amount from LC-MS AUC. The format is cell-based. The method, then: (§1) Crude extracts of darobactin derivatives obtained by the heterologous expression and separation protocol described above were tested for their activity against exemplified Gram-negative bacteria with a minimum inhibitory concentration (MIC) assay. The presence of darobactin derivatives in the crude extracts was verified by checking the expected masses via LC-MS.
(§2) For the MIC assay, 10 μl of crude extract of each test sample, diluted in 50% methanol/H2O, was added each into a well of the first row of a 96 well plate. […] Then, 75 μl of cation-adjusted Mueller-Hinton broth medium was added to each well and the samples contained in the first row were mixed with the 75 μl medium/extract mixture. Starting from the […] mixtures in the first row, serial dilutions of the respective mixtures were prepared in corresponding subjacent rows of the 96 well plate. Bacterial suspensions of each strain to be tested were diluted 1:100 in cation-adjusted Mueller-Hinton broth to obtain a final inoculum of approximately 10^6 CFU/mL. 75 μl of each bacterial suspension to be tested was added to the respective crude extract samples in the wells of the 96 well plate and the plates were incubated at either 30° C. or 37° C. for at least 24 h under static conditions. Plates were then checked visually and MIC was determined as lowest concentration where no visible growth was observed. In order to quantify the activity of the obtained darobactin derivatives, their relative activity in relation to the activity of darobactin A was determined. The amount of darobactin derivative present in the extract test sample was calculated based on the area under the curve (AUC) of the mass peak as automatically calculated by software DataAnalysis 4.2 and extracted from the LC-MS measurements of each of the crude extract samples. Using the AUC of the mass peak of darobactin A (DA) as calibration standard, i.e. ratio between AUC of darobactin derivative and darobactin A was correlated to amount of compound present in sample. The results of activities of tested darobactin derivatives against exemplified Gram-negative bacteria as compared to the activity of darobactin A are summarized in Table 5 below.

In test [2] the test system is Klebsiella pneumoniae DSM-30104. The description is as above. It counts as cell-based. Particulars: crude extract, relative to darobactin A, amount from LC-MS AUC. The method, then: as §1, §2
Test [3] deals with Pseudomonas aeruginosa PA01. The test is described as above. It counts as cell-based. Particulars: crude extract, relative to darobactin A, amount from LC-MS AUC. The method, then: as §1, §2
The subject of test [4] is E. coli ATCC25922. The test is described as above. The format is cell-based, Escherichia coli. The conditions noted are these: crude extract, relative to darobactin A, amount from LC-MS AUC. The method, then:
as §1, §2

Another test relates to K. pneumoniae DSM-30104. The test can be described thus: Microbroth dilution of crude extracts, concentration factor at full growth inhibition. The format is cell-based, Klebsiella pneumoniae. The method, then:
(§3) Crude extracts containing the respective darobactin derivatives obtained by the heterologous expression and separation protocol described above were tested for their activity against exemplified Gram-negative bacteria in standard microbroth dilution assays. The presence of darobactin derivatives in the crude extracts was verified by checking the expected masses via LC-HRMS.
(§4) All microorganisms were handled according to standard procedures as recommended by the depositor. Strains were obtained from the German Collection of Cell Cultures and Microorganisms (Klebsiella pneumoniae DSM-30104, Acinetobacter baumannii DSM-30007 and A. baumannii DSM-30008), the American Type Culture Collection (Escherichia coli ATCC-25922), or were part of our internal strain collection (Pseudomonas aeruginosa PAO1, PA14 and PA14ΔmexAB).
(§5) For the MIC assay, 10 μl of crude extract of each test sample, diluted in 50% methanol/H2O, was added each into a well of the first row of a 96 well plate. […] Then, 75 μl of cation-adjusted Mueller-Hinton broth medium was added to each well and the samples contained in the first row were mixed with the 75 μl medium/extract mixture. Starting from the 150 μl mixtures in the first row, serial dilutions of the respective mixtures were prepared in corresponding subjacent rows of the 96 well plate. […]

In a further test the test system is P. aeruginosa PAO1. The test is described as above. The format is cell-based, Pseudomonas aeruginosa. The method, then:
as §3, §4, §5

For test [5], the system named is E. coli ATCC25922. The description is as above. The format is cell-based, Escherichia coli. The method, then: as §3, §4, §5
Another test has as its system A. baumannii DSM-30008. The description is as above. It counts as cell-based, Acinetobacter baumannii. The conditions noted are these: A. baumannii DMS-30008. The method, then:
as §3, §4, §5

Test [6] concerns A. baumannii 038 (OXA-23). Nature of the test: MIC against clinical isolates of A. baumannii. The format is cell-based, Acinetobacter baumannii. The conditions noted are these: clinical isolate A. baumannii 038 (OXA-23).
Test [7] deals with A. baumannii 045 (OXA-58). The test can be described thus: MIC against clinical isolates of A. baumannii. The format is cell-based, Acinetobacter baumannii. Particulars: clinical isolate A. baumannii 045 (OXA-58).
In test [8] the test system is A. baumannii 046 (OXA-40). Nature of the test: MIC against clinical isolates of A. baumannii. The format is cell-based, Acinetobacter baumannii. The conditions noted are these: clinical isolate A. baumannii 046 (OXA-40).
In test [9] the test system is A. baumannii 047 (OXA-235). The test can be described thus: MIC against clinical isolates of A. baumannii. It counts as cell-based, Acinetobacter baumannii. Particulars: clinical isolate A. baumannii 047 (OXA-235).
The next test has as its system A. baumannii 070 (NDM-1). The test can be described thus: MIC against clinical isolates of A. baumannii. It counts as cell-based, Acinetobacter baumannii. Particulars: clinical isolate A. baumannii 070 (NDM-1).
For test [10], the system named is A. baumannii 054 (OXA-51-ISAba1). Nature of the test: MIC against clinical isolates of A. baumannii. It counts as cell-based, Acinetobacter baumannii. Particulars: clinical isolate A. baumannii 054 (OXA-51-ISAba1).

One may read the MIC as the lowest concentration found to suppress growth. Read a low MIC as inhibition by little substance.

Consider `NCCC[C@H]1c2ccc3c(c[nH]c3c2)[C@H]2Oc3cccc4c(c[nH]c34)C[C@H](N)C(=O)N[C@@H](CC(N)=O)C(=O)N[C@@H]2C(=O)N[C@@H](CO)C(=O)N[C@@H]1C(=O)N[C@@H](CO)C(=O)N[C@@H](Cc1ccc(O)cc1)C(=O)O` [Darobactin 10], for which the Relative activity is given as 0 in test [1], 0 in test [2], “+” in test [3] and 0 in the test on E. coli ATCC25922 [4].
For the compound `NCCC[C@H]1c2ccc3c(c[nH]c3c2)[C@H]2Oc3cccc4c(c[nH]c34)C[C@H](N)C(=O)N[C@@H](CCC(N)=O)C(=O)N[C@@H]2C(=O)N[C@@H](CO)C(=O)N[C@@H]1C(=O)N[C@@H](CO)C(=O)N[C@@H](Cc1ccccc1)C(=O)O` [Darobactin 11], the Relative activity entry is reported as “+++++” in test [1], “++++” in test [2], “+++++” in test [3] and “+++++” in the test with E. coli ATCC25922 [4].
On to `C[C@@H]1NC(=O)[C@H]2NC(=O)[C@H](CC(N)=O)NC(=O)[C@@H](N)Cc3c[nH]c4c(cccc34)O[C@@H]2c2c[nH]c3cc(ccc23)[C@H](CCCN)[C@@H](C(=O)N[C@@H](CO)C(=O)N[C@@H](Cc2ccccc2)C(=O)O)NC1=O` [Darobactin 14], for which the Relative activity entry in [1] is given as “++”; in test [2], “+++”; in [3], “++”; in the test on E. coli ATCC25922 [4], “+++”.
As to `C[C@H](NC(=O)[C@H]1NC(=O)[C@H](CO)NC(=O)[C@H]2NC(=O)[C@H](CC(N)=O)NC(=O)[C@@H](N)Cc3c[nH]c4c(cccc34)O[C@@H]2c2c[nH]c3cc(ccc23)[C@@H]1CCCN)C(=O)N[C@@H](Cc1ccccc1)C(=O)O` [Darobactin 16], the Relative activity entry (in test [1]; in test [2]; in [3]; in the test with E. coli ATCC25922 [4]) was “+” each time.
Turning to `C[C@@H]1NC(=O)[C@H]2NC(=O)[C@H](CC(N)=O)NC(=O)[C@@H](N)Cc3c[nH]c4c(cccc34)O[C@@H]2c2c[nH]c3cc(ccc23)[C@H](CCCN)[C@@H](C(=O)N[C@@H](CO)C(=O)N[C@@H](Cc2c[nH]c3ccccc23)C(=O)O)NC1=O` [Darobactin 30], the “Concentration factor of crude extract at which full growth inhibition is observed” value with K. pneumoniae DSM-30104 is given as 1.67x; in the test on P. aeruginosa PAO1 it was 0.11x; in the test with E. coli ATCC25922 [5], 0.83x; in the test with A. baumannii DSM-30008, 0.83x.
Consider `C[C@@H](O)[C@@H]1NC(=O)[C@H]2NC(=O)[C@H](CC(N)=O)NC(=O)[C@@H](N)Cc3c[nH]c4c(cccc34)O[C@@H]2c2c[nH]c3cc(ccc23)C(CCNC(=N)N)[C@@H](C(=O)N[C@@H](CCCNC(=N)N)C(=O)N[C@@H](Cc2c[nH]c3ccccc23)C(=O)O)NC1=O` (stereo partly shown) [Darobactin 39], for which the “Concentration factor of crude extract at which full growth inhibition is observed” value amounted to 0.42x in the test on K. pneumoniae DSM-30104, 0.11x with P. aeruginosa PAO1, 0.42x in the test on E. coli ATCC25922 [5] and 0.05x in the test with A. baumannii DSM-30008.
For `N=C(N)NCC[C@H]1c2ccc3c(c[nH]c3c2)[C@H]2Oc3cccc4c(c[nH]c34)C[C@H](N)C(=O)N[C@@H](CC(N)=O)C(=O)N[C@@H]2C(=O)N[C@@H](CO)C(=O)N[C@@H]1C(=O)N[C@@H](CO)C(=O)N[C@@H](Cc1ccccc1)C(=O)O` [Darobactin D], the Relative activity result was “++++” in [1], 0 in test [2], “++++” in [3] and “++++” in the test with E. coli ATCC25922 [4].
Take `CCCCCCC1OC(=O)CNC(=O)C(C(C)O)NC(=O)C(CO)NC(=O)C(C(C)CC)NC(=O)C(CC(C)C)N(C)C(=O)C1C` (stereo not shown) [Globomycin]: the minimum inhibitory concentration (MIC) was 32 µg/mL (≈ 48.8 µM) in test [6]; 64 µg/mL (≈ 97.6 µM) in test [7]; 32 µg/mL (≈ 48.8 µM) in test [8]; 64 µg/mL (≈ 97.6 µM) in test [9]; 16 µg/mL (≈ 24.4 µM) in the test on A. baumannii 070 (NDM-1); over 64 µg/mL in test [10].
